Results on two molecules are retold here after publication PMC4833311, “Structure of Type IIL Restriction-Modification Enzyme MmeI in Complex with DNA Has Implications for Engineering New Specificities” (PLoS Biology, 2016).

For series [1], the target named is T1, MmeI (Methylophilus methylotrophus, UniProt B2MU09).
T1 construct: gene mmeIRM; residues 156-906 modelled, endonuclease domain 1-155 disordered; purified as described previously
T1 sequence (B2MU09 1-919): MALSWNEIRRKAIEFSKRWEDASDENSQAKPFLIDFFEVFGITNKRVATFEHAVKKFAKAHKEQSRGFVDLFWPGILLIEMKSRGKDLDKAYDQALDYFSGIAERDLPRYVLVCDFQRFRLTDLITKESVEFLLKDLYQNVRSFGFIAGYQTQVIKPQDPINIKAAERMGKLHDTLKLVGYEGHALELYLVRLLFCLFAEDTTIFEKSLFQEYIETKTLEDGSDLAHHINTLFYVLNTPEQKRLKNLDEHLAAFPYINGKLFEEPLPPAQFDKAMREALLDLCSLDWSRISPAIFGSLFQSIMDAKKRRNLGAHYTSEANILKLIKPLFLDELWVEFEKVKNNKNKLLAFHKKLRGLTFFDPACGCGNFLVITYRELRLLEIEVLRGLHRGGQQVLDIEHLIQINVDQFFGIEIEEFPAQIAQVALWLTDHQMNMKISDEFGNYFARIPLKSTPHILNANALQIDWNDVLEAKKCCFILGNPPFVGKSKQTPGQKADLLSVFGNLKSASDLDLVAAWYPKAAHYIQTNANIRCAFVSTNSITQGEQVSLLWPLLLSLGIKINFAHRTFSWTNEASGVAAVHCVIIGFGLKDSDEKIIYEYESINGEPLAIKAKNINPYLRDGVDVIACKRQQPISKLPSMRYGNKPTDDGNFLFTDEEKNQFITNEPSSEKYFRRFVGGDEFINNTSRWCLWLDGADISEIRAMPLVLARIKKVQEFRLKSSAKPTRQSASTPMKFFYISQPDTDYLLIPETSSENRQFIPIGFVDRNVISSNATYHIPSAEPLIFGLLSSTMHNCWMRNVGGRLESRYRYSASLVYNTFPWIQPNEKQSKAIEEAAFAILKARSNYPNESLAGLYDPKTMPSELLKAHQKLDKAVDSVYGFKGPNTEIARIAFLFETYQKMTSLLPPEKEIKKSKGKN
The experiment in a line: X-ray crystal structure, […] Å (SAD). In kind it is binding. Particulars: ternary complex with 29-mer DNA containing TCCGAC; AdoMet site of methyltransferase domain; pH 7.5, 293 K; calcium ions in model.

Series [2] has as its target T2, MmeI (Methylophilus methylotrophus, UniProt B2MU09 1-919).
T2 sequence: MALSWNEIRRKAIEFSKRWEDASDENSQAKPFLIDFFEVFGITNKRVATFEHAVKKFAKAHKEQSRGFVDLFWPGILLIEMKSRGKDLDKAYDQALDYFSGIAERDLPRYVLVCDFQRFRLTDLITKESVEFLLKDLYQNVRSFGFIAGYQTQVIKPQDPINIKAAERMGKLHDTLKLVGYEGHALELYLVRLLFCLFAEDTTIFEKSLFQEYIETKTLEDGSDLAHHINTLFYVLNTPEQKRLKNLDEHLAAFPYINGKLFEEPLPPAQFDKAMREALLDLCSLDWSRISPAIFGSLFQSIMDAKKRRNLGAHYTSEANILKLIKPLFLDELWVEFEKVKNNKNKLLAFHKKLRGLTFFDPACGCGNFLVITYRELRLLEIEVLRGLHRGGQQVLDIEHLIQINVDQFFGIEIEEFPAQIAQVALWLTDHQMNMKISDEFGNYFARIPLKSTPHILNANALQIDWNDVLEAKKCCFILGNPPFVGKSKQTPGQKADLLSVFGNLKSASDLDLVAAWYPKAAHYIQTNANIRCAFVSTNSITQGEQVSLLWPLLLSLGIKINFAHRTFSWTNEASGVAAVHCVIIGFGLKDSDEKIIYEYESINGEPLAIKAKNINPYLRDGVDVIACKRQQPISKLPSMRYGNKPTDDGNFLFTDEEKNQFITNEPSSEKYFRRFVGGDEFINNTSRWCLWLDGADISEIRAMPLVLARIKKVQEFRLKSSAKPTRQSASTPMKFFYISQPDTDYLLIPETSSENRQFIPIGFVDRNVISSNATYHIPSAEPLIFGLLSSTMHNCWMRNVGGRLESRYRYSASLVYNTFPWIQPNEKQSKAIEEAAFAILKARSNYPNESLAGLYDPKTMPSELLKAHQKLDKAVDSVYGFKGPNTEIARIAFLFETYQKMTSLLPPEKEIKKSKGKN
The experiment in a line: X-ray crystallography (2.6 A); Sinefungin; Ca2+ in model; Crystallization: 20% PEG 4K, 0.1 M Hepes pH 7.5, 0.1 M (NH4)2SO4, 293 K, with Sinefungin; no solution binding assay. The conditions noted are these: protein: recombinant; blunt.

In the case of `Nc1ncnc2c1ncn2[C@@H]1O[C@H](C[C@@H](N)CC[C@H](N)C(=O)O)[C@@H](O)[C@H]1O` [Sinefungin], the “X-ray crystal structure, 2.6 Å (SAD)” value in series [1] is given as “The SAM analog Sinefungin is tightly bound within the MTase domain via extensive hydrogen bonding”.

B1: 29-mer MmeI site duplex, 5-bromouracil substituted (dsDNA)
DNA 1: TATCCGACAUAACGCUAGUCACUAGCUUC
DNA 2: GAAGCUAGUGACUAGCGUTAUGTCGGATA
modifications: U = 5-bromouracil (replaces several thymines outside the recognition site) in both strands
B1: in series [2], the binding result is reported as “binds”.
